In patent US9273290B2, “Method for producing phosphite dehydrogenase protein and use thereof” (HIROSHIMA UNIVERSITY, priority 2011, dated 2016):
Values joined by “and” are separate entries in the source; they are usually repeats but may differ in a detail not shown here. Equal entries are not always repeated.

What was measured:
[1] = molecular target: T1, Ralstonia sp. strain 4506 phosphite dehydrogenase, SEQ ID NO: 1, C-terminal His tag fusion (PtxD4506) (Ralstonia sp. 4506, UniProt G4XDR8); assay: Activity of phosphite dehydrogenase protein in the presence of inhibitor; assay type: biochemical; details: 45° C., 60 minutes; for relative value of OD340 (activity in the presence of inhibitor, control = 100): 50 μL of 40 mM inhibitor in the reaction solution (500 μL in total); for activity in the presence of inhibitor (in words): 50 μL of 40 mM inhibitor in the reaction solution
T1 sequence (G4XDR8 1-336): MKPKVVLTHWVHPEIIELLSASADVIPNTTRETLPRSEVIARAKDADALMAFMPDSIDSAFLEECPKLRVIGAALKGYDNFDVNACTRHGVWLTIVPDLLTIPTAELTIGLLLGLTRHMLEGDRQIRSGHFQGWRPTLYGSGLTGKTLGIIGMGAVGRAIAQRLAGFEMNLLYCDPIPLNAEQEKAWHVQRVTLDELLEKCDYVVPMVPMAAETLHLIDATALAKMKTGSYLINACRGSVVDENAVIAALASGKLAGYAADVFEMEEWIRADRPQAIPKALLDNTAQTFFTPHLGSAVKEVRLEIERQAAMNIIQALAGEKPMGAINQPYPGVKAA
From the text: (§1) By a well-known method, the base sequence of SEQ ID NO: 2 or a phosphite dehydrogenase gene (SEQ ID NO: 4) of P stutzeri WM88 was inserted into a plasmid pET21b (produced by Novagen) (an amino acid sequence of the protein encoded by the base sequence of SEQ ID NO: 4 is shown in SEQ ID NO: 3) to prepare (i) an expression vector of a fusion protein (see “PtxD4506” in FIG. 2) in which the C-terminal of the phosphite dehydrogenase protein of SEQ ID NO: 1 is labeled with a His tag or (ii) an expression vector of a fusion protein (see “PtxDPst” in FIG. 2) in which the C-terminal of the phosphite dehydrogenase protein of P stutzeri WM88 is labeled with a His tag.
(§2) The supernatant was supplied to a HisTrap column (produced by GE Healthcare) and, in accordance with protocols attached to the HisTrap column, a fusion protein in which a His tag was connected to the C-terminal of the phosphite dehydrogenase protein of SEQ ID NO: 1 was purified.
(§3) PtxD4506 and PtxDPst, which were purified with use of the HisTrap column in [3. […] An experimental method was based on a method described in the literature “Costas et al., Journal of Biological Chemistry, 2001, 276, 17429-17436.” The experimental method is briefly described below.
(§4) A reaction solution was prepared by mixing 100 μL of 100 mM MOPS-KOH (pH 7.25), 50 μL of 10 mM NAD, 5 μL of 5 mM phosphite, 50 μL of 40 mM inhibitor of various kinds (arsenite, nitrate, sulfate, or NaCl), 294 μL of H2O, and 1 μL of 0.5 mg/mL protein-containing solution (a PtxD4506-containing solution, a PtxDPst-containing solution, or a liquid which contained no protein (negative control)).
(§5) The reaction solution was reacted for 60 minutes. Note that the reaction solution containing the PtxD4506-containing solution was reacted at 45° C., and the reaction solution containing the PtxDPst-containing solution was reacted at 30° C. Subsequently, OD340 was measured. A relative value of OD340 of each sample was calculated relative to 100 of a value of OD340 of the reaction solution containing the liquid which contained no protein (negative control). Note that each experiment was conducted 4 times or more, and an average of relative values obtained in the 4 or 5 experiments was also calculated.

[2] = molecular target: T2, Pseudomonas stutzeri WM88 phosphite dehydrogenase, wild type, SEQ ID NO: 3, C-terminal His tag fusion (PtxDPst) (Stutzerimonas stutzeri, UniProt O69054); assay: as above; assay type: biochemical; design: key to relative value of OD340 (activity in the presence of inhibitor, control = 100): OD340 relative to no-protein negative control = 100; details: 30° C., 60 minutes; for relative value of OD340 (activity in the presence of inhibitor, control = 100): 50 μL of 40 mM inhibitor in the reaction solution (500 μL in total); for activity in the presence of inhibitor (in words): 50 μL of 40 mM inhibitor in the reaction solution
T2 construct: His tag (C); made in house; host or cells: E. coli Rosetta2 (DE3), plasmid pET21b
T2 sequence (O69054 1-336): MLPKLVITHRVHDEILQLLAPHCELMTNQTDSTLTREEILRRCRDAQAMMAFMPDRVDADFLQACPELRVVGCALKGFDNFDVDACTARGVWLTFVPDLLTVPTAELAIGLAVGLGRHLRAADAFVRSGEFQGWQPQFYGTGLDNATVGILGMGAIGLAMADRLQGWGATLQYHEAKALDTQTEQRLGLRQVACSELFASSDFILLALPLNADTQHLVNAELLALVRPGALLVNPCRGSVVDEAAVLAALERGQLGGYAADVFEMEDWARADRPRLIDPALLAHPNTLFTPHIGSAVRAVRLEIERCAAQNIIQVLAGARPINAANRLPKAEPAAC
From the text: as §1, §2, §3, §4, §5

[3] = molecular target: T1, Ralstonia sp. strain 4506 phosphite dehydrogenase, SEQ ID NO: 1, C-terminal His tag fusion (PtxD4506); assay: Reaction kinetic analysis: NADH production rate at varied NAD+ concentration
[4] = molecular target: T2, Pseudomonas stutzeri WM88 phosphite dehydrogenase, wild type, SEQ ID NO: 3, C-terminal His tag fusion (PtxDPst); assay: as above; assay type: biochemical; details: NAD+ 0.5 μM to 200 μM, 28° C., individual experiments 1-3
From the text: as §1
The supernatant was supplied to a HisTrap column (produced by GE Healthcare) and, in accordance with protocols attached to the HisTrap column, a fusion protein in which a His tag was connected to the C-terminal of the phosphite dehydrogenase protein of SEQ ID NO: 1 was purified. […]
Reaction rates of respective PtxD4506 and PtxDPst were calculated on the basis of (Reaction formula 1) shown in the section [Background Art].
Specifically, in the reaction system of (Reaction formula 1), a production rate of NADH was measured with use of 7.5 μg of each of the fusion proteins PtxD4506 and PtxDPst while a concentration of a substrate (NAD^+) was gradually changed from 0.5 μM to 200 μM. […]

[5] = pH 7.25, average of 4 or 5 experiments
[6] = pH 7.25, individual experiments 1-5
[7] = NAD+ 0.5 μM to 200 μM, 40° C., individual experiments 1-3

Structure (SMILES)	relative value of OD340 (activity in the presence of inhibitor, control = 100) [1, 5]	relative value of OD340 (activity in the presence of inhibitor, control = 100) [1, 6]	activity in the presence of inhibitor (in words) [1]	relative value of OD340 (activity in the presence of inhibitor, control = 100) [2, 5]	relative value of OD340 (activity in the presence of inhibitor, control = 100) [2, 6]	activity in the presence of inhibitor (in words) [2]	Kcat [3, 7]	Vmax [3, 7]	Vmax of PtxD4506 relative to that of PtxDPst ([3]; NAD+, PtxD4506 at 40° C., PtxDPst at 28° C.)	Kcat [4]	Vmax [4]
O[As](O)O [Arsenite]	101.6	102.6 and 102.2 and 101.7 and 101.3 and 100.2	maintained in a high level	86.6	82.3 and 90.4 and 88.6 and 91.4 and 90.7	inhibited	–	–	–	–	–
NC(=O)c1ccc[n+]([C@@H]2O[C@H](COP(=O)([O-])OP(=O)(O)OC[C@H]3O[C@@H](n4cnc5c(N)ncnc54)[C@H](O)[C@@H]3O)[C@@H](O)[C@H]2O)c1 [NAD+]	–	–	–	–	–	–	4.262 s⁻¹ and 4.068 s⁻¹ and 3.54 s⁻¹	6.4 µmol/min/mg and 6.1 µmol/min/mg and 5.3 µmol/min/mg	about 1.4 times	3.235 s⁻¹ and 2.732 s⁻¹ and 2.513 s⁻¹	4.9 µmol/min/mg and 4.1 µmol/min/mg and 3.8 µmol/min/mg
O=[N+]([O-])O [Nitrate]	35.7	29.2 and 39.6 and 40.2 and 40.3 and 29.3	maintained in a high level	18.3	15.3 and 21.8 and 20.3 and 20.1 and 14.0	inhibited	–	–	–	–	–
N.N.O=S(O)O [Sulfite]	52.5	53.2 and 58.8 and 57.0 and 40.9	–	14.0	15.4 and 15.3 and 16.2 and 9.2	–	–	–	–	–	–
O=S(=O)(O)O [sulfate]	–	–	maintained in a high level	–	–	inhibited	–	–	–	–	–
